From ChEMBL document CHEMBL4392880, “Bioactive Diterpenoids from the Stems of Euphorbia antiquorum” (J Nat Prod, 2019)

What was measured:
BV-2 [1] = test: Cytotoxicity against mouse BV2 cells assessed as effect on cell survival by MTT assay; type: cell-based
BV-2 [2] = test: Antiinflammatory activity in mouse BV2 cells assessed as inhibition of LPS-induced nitric oxide production incubated for 24 hrs by Griess assay; type: functional, cell-based; settings: BV-2, 24 h

Row | IC50 (BV-2 [2]) [µM] | Structure (SMILES) | Activity (BV-2 [1])
1 | 3.1 | CSC(=N)N.O=S(=O)(O)O | Non-Toxic
2 | 9.1 | CC1(C)CCC[C@]2(C)[C@@H]1CC[C@@]13O[C@@H]1C1=C(CO)C(=O)OC1=C[C@@H]23 | Non-Toxic
3 | 42.9 | CCCC(=O)OC[C@]1(C)C(=O)CC[C@@]2(C)[C@@H]3CC[C@@H]4C[C@@]3(CC[C@@H]21)C[C@@]4(O)CO | Non-Toxic
4 | 14.5 | C/C=C(\C)C(=O)O[C@H]1[C@H]2[C@@H]([C@@H](OC(C)=O)[C@@H](C)C(=O)[C@@]34C[C@H](C)[C@H](OC(=O)c5ccccc5)[C@]3(/C=C(\C)[C@H]1O)O4)C2(C)C | Non-Toxic
5 | > 100 | C=C1C[C@@]23CC[C@H]4[C@@](C)(CCC(=O)[C@@]4(C)COC(C)=O)[C@@H]2C[C@@H]1[C@@H](O)C3=O | Non-Toxic
6 | > 100 | CC1(C)C(=O)CC[C@]2(C)[C@@H]1CC[C@@]13C[C@H](CC[C@H]12)[C@@](O)(CO)C3 | Non-Toxic
7 | 44.3 | C=C1C[C@@]23CC[C@H]4[C@@](C)(CCC(=O)[C@@]4(C)COC(=O)/C(C)=C/C)[C@@H]2C[C@@H]1[C@@H](O)C3=O | Non-Toxic
8 | > 100 | C=C1C[C@@]23CC[C@H]4[C@@](C)(CCC(=O)[C@@]4(C)COC(=O)CCC)[C@@H]2C[C@@H]1[C@@H](O)C3=O | Non-Toxic
9 | 25.4 | C=C1C[C@]23CC[C@H]1C[C@H]2[C@]1(C)CCC(=O)[C@@](C)(CO)[C@H]1CC3 | Non-Toxic
10 | 76.6 | CCC(=O)OC[C@]1(C)C(=O)CC[C@@]2(C)[C@@H]3C[C@@H]4CC[C@@]3(CC[C@@H]21)C[C@@]4(O)CO | Non-Toxic
11 | 26.9 | C/C=C(\C)C(=O)O[C@H]1[C@H]2[C@@H]([C@@H](OC(C)=O)[C@@H](C)C(=O)[C@@]34C[C@H](C)[C@H](OC(=O)/C(C)=C/C)[C@]3(/C=C(\C)[C@H]1O)O4)C2(C)C | Non-Toxic
12 | 15 | CC1=C2[C@H]3O[C@]34CC[C@@H]3C(C)(C)CCC[C@@]3(C)[C@@H]4C[C@H]2OC1=O | Non-Toxic
13 | 77 | C=C1C[C@@]23CC[C@H]4[C@@](C)(CCC(=O)[C@@]4(C)COC(C)=O)[C@@H]2C[C@@H]1CC3=O | Non-Toxic
14 | 28.8 | C=C1C[C@@]23CC[C@H]4[C@@](C)(CCC(=O)[C@@]4(C)COC(=O)/C(C)=C/C)[C@@H]2C[C@@H]1CC3=O | Non-Toxic
15 | > 100 | C/C=C(\C)C(=O)O[C@H]1[C@H]2[C@@H]([C@@H](OC(C)=O)[C@@H](C)C(=O)[C@@]34C[C@H](C)[C@H](OC(C)=O)[C@]3(/C=C(\C)[C@H]1O)O4)C2(C)C | Non-Toxic
16 | > 60 | C=C1C[C@@]23CC[C@H]4[C@@](C)(CCC(=O)[C@@]4(C)COC(=O)CCC)[C@@H]2C[C@@H]1CC3=O | Non-Toxic
17 | 42.4 | CCCC(=O)OC[C@]1(C)C(=O)CC[C@@]2(C)[C@@H]3C[C@@H]4CC[C@@]3(CC[C@@H]21)C[C@@]4(O)CO | Non-Toxic
18 | 24.1 | CC(=O)O[C@H]1CCC(C)(C)[C@H]2CC[C@@]34O[C@@H]3C3=C(C)C(=O)O[C@@H]3C[C@H]4[C@]12C | Non-Toxic
19 | > 10 | C=C[C@]1(C)C=C2CC[C@H]3[C@](C)(C=O)[C@@H](O)CC[C@]3(C)[C@H]2CC1 [SANDARACOPIMARADIENOLAL] | Non-Toxic
